The structures appear in SMILES notation.

For assay [1], the target named is T1, purified porcine tubulin (Sus scrofa, UniProt P02550+P02554).
T1 construct: purchased Cytoskeleton, Inc. T240
Put plainly: Fluorescent microtubule assembly assay. The following applies: mammalian tubulin, fluorescence micrographs. It is filed as biochemical. As to the method:
(§1) To determine the selectivity of MMV676477, purified porcine tubulin was exposed to a serial dilution of the drug (0 to 25 μM) and absorbance was measured at 340 nm over time. […] To ensure that the absorbance seen at 340 nm reflected microtubule formation and not precipitation, a fluorescent microtubule assembly assay was employed.

The target in assay [2] is T1, purified porcine tubulin. Put plainly: Tubulin polymerization turbidity assay, mammalian tubulin. It is filed as biochemical. As to the method: Tubulin polymerization assays were performed in 96-well half-area microplates (Costar) in a final volume of 100 μL. Briefly, Leishmanial or porcine tubulin (>99% pure, Cat. #T240, Cytoskeleton, Inc.) in 50 μL volume was pre-treated with drugs on ice for 5 minutes before adding 50 μL ice cold buffer, to provide a final concentration of 3 mg/ml tubulin in 80 mM PIPES pH 6.9, 2 mM MgCl2, 0.5 mM EGTA, 1 mM GTP, and 1% DMSO unless specified otherwise. The absorbance at 340 nm was recorded in a Synergy H1 microplate reader (BioTek) for up to 45 min at 37° C. (porcine tubulin) or 30° C. (L. tarentolae tubulin).
as §1

Assay [3] deals with L. amazonensis axenic amastigotes. Briefly: alamarBlue viability / concentration-response assay, axenic amastigotes. It is filed as cell-based, Leishmania amazonensis. The following applies: Leishmania amazonensis, 72 h, L. amazonensis, stage not stated; read-out: EC50^72 h for La. As to the method:
Leishmania amazonensis axenic amastigotes (100 μL, 2×10^6 cells/mL) were added to 96-multiwell plates containing 100 μL of amastigote culture medium with an appropriate compound dilution series. 0.1% DMSO (no drug) served as a positive control (100%), and 5 μM amphotericin B served as a negative growth control (0%). Only internal wells were used to minimize edge effects from evaporation. Axenic amastigotes were incubated at 32° C. with a compound/drug for 72 h prior to measurement. Similarly, the cytotoxicity of each compound was determined against RAW 264.7 cells and HepG2 cell lines, following 72 h incubation at 37° C. (promastigotes at 26° C.).
10% alamarBlue® (Thermo Fisher Scientific) was used to measure the growth of both parasite and mammalian cells. Conversion from a blue oxidized state to a pink reduced state was assessed visually at 6 hr. The fluorescence signal was measured with a BioTek Synergy H1 plate reader (530 nm excitation, 570 nm emission). For bioluminescence assays using L. amazonensisluc, relative luminescence units (RLU) were measured using Britelite Plus (PerkinElmer, USA). Luminescence produced by this luciferase reaction is proportional to the amount of luciferase-expressing, viable L. amazonensisluc. Following five-minute incubation at room temperature, the luminescence was measured with a BioTek Synergy H1 plate reader.
All experiments were conducted as three technical triplicates on the same plate, with at least three independent biological repeats of each plate performed. For all assays, percent growth was expressed as a proportion of the untreated (positive) control (i.e. 100%) and plotted against drug/compound concentration. The concentration was then log10 transformed and EC50 values were determined using nonlinear regression (sigmoidal dose-response/variable slope equation) in GraphPad Prism v5.0 (GraphPad Software, Inc., San Diego, CA).
To identify antileishmanial compounds, a microplate-based alamarBlue® assay was used to quickly triage the 400 drug-like compounds available in the MMV Pathogen Box collection. […] A three-step process was used to screen the Pathogen Box: 1) identify hits against axenic amastigotes, 2) confirm the inhibitory concentrations of these hits against axenic amastigotes, 3) evaluate hits for potency against intracellular parasites using fluorescence and bioluminescence-based intracellular assays. The MMV Pathogen Box resource was tested at two concentrations (5 μM and 1 μM, 72 h endpoint) on axenic amastigotes.
Hits were defined as compounds that, at a concentration of 1 μM, decreased the relative fluorescence intensity signal to ≤70% of that produced by parasites incubated in vehicle (0.06% DMSO) only (FIG. 9).
For orientation: Resazurin is reduced to fluorescent resorufin, in cell work by metabolically active cells.

Assay [4] deals with purified L. tarentolae tubulin (Leishmania tarentolae, UniProt A0A640KCM0+A0A640KQN0). Briefly: Tubulin polymerization turbidity assay, Leishmania tubulin. It is filed as biochemical. As to the method: L. tarentolae (Parrot strain from ATCC) tubulin was purified. Briefly, promastigotes of L. tarentolae were grown to a high density (˜1×10^8 cells/mL), harvested, and resuspended in PME+P buffer containing 100 mM piperazine N, N′-bis (2-ethanesulfonic acid) (PIPES) buffer (pH 6.9), 1 mM glycol ether diamine tetraacetic acid (EGTA), 1 mM MgCl2, 1 mM benzamidine, 0.5 mM phenylmethylsulfonyl fluoride, 25 μg/ml leupeptin. The resulting suspension was extensively sonicated on ice with a probe sonicator (Misonix), cooled on ice for 30 minutes and centrifuged at 40,000×g for 1 hour at 4° C. using an ultracentrifuge (Beckman, Fullerton, CA). The resulting supernatant was filtered through a glass wool or 0.45-micron filter before loading into an equilibrated DEAE-Sepharose Fast Flow matrix (Amersham Biosciences). The column was washed with two column volumes of PME+P and subsequently four column volumes PME+P containing 0.1 M KCl and 0.25 M glutamate (pH 6.9). Tubulin was eluted with two column volumes PME+P containing 0.3 M KCl and 0.75 M glutamate (pH 6.9), and tubulin-rich fractions were confirmed by tubulin polymerization assays. The assembly-competent tubulin was pooled together and diluted into 1×PME buffer, 2 mM GTP, 10 mM MgCl2 and 8% DMSO (v/v). Tubulin was incubated in this buffer for 45 minutes at 30° C. to promote assembly, centrifuged at 50,000×g at 30° C. for 30 min, and re-suspended in 1 mL of ice-cold PME. […] Purity was assessed by SDS-PAGE and Coomassie Blue.
Tubulin polymerization assays were performed in 96-well half-area microplates (Costar) in a final volume of 100 μL. […] The absorbance at 340 nm was recorded in a Synergy H1 microplate reader (BioTek) for up to 45 min at 37° C. […]
To determine whether MMV676477 directly regulates microtubule assembly, assembly-competent tubulin from Leishmania tarentolae was purified and analyzed (FIG. 5A). […] 3 mg/mL purified L. tarentolae tubulin (3 mg/mL) was treated with serial dilutions of MMV676477 while the absorbance was measured at 340 nm over time.

For assay [5], the system named is cellular tubulin of L. amazonensis. Put plainly: Polymerized vs. unpolymerized tubulin in parasites (differential centrifugation, western blot). It is filed as cell-based, Leishmania amazonensis. The following applies: 24 h at EC50^72 h, densitometry. From the text:
(§2) One reason why MMV676477 might affect parasite cell division is that, like paclitaxel, it might affect microtubule polymerization, either directly or indirectly. The degree to which MMV676477 affected microtubules polymerization in cells was examined. […] Centrifugation of these extracts allowed separation of insoluble polymeric (pellet) and soluble dimeric (supernatant) tubulin. […] The intensity of α-tubulin staining was examined by normalizing it to the intensity of a membrane protein (gp46 for promastigotes in FIG. 4D; p8 for amastigotes in FIG. 4E).

Assay [6] relates to L. amazonensis promastigotes and amastigotes. Put plainly: Tubulin intensity by confocal immunofluorescence microscopy. It is filed as cell-based, Leishmania amazonensis. The following applies: 24 h at EC50^72 h. As to the method: Promastigotes or amastigotes were treated with the indicated compound concentrations and allowed to adhere to poly-L-lysine coated plates. All cells were fixed with 4% paraformaldehyde and permeabilized/blocked with 0.01% Triton X-100 and 2% BSA in PBS. Promastigotes and amastigotes were incubated with mouse anti-gp46 or anti-p8, respectively at 1:50 or 1:1000 and rat anti-alpha-tubulin antibody at 1:1000. Samples were then probed with A568 anti-mouse and […] secondary antibodies (Molecular Probes). DNA was labeled with Hoescht. Samples were visualized on a Zeiss LSM 880 Inverted confocal Airyscan microscope at 63×; full Z-thicknesses through parasites were obtained. […] For microscopic analysis of mitotic arrest, at least 200 parasites were analyzed per condition per experiment after 48 hrs incubation at compounds' EC50, and the average plus standard error for three experiments was calculated. Representative images were selected from the maximal intensity projections and linearly processed in Adobe Photoshop CS6.
as §2

Usually EC50 stands for the concentration that produces a half-maximal response. For `CC(=O)O[C@H]1C(=O)[C@@]2(C)[C@H]([C@H](OC(=O)c3ccccc3)[C@]3(O)C[C@H](OC(=O)[C@H](O)[C@@H](NC(=O)c4ccccc4)c4ccccc4)C(C)=C1C3(C)C)[C@]1(OC(C)=O)CO[C@@H]1C[C@@H]2O` [paclitaxel], the “microtubules formed vs control” value on purified porcine tubulin [1] is listed as “many more microtubules were formed”. The concentration for a half-maximal effect (EC50) at purified porcine tubulin [2] (3 mg/ml tubulin, 1% DMSO, A340) is 1500 ± 200 nM; in assay [3], 760 nM; in assay [4], 1300 nM. At purified porcine tubulin [2] (mammalian tubulin), the “Maximum absorbance (A340, 10% DMSO)” value is recorded as 0.36. Further, in assay [5], the “proportion of cellular polymeric tubulin” value is on record as “significantly increased the proportion of cellular polymeric tubulin”. Also, the “tubulin intensity over control (DMSO-treated)” value in assay [6] is “significant two-fold increase in tubulin intensity”.

These data come from patent US20240139190A1, “NOVEL ANTIPARASITIC COMPOUNDS AND METHODS” (The Board of Regents of The University of Texas System, priority 2019, published 2024).
